Test results from US11873295B2, “Allosteric chromenone inhibitors of phosphoinositide 3-kinase (PI3K) for the treatment of disease” (Petra Pharma Corporation, priority 2021, dated 2024).

System: PI3K-α (PIK3CA) in MDA-MB-453 cells
Experiment: PI3K-alpha kinase (PIK3CA) activity in vitro cell based assay, MDA-MB-453 cells, AlphaLisa SureFire
Conditions: Homo sapiens, MDA-MB-453, 3 h, 0% FBS, 3 hours treatment, relative IC50
Experimental: PI3K-Alpha Kinase (PIK3CA) Activity In Vitro Cell Based Assay and Determining IC50 Values for Inhibitors
The MDA-MB-453 (ATCC-HTB-131) cell line was obtained from the American Type Culture Collection (Manassas, VA). Cells were maintained in Dulbecco's Modified Eagle Media (DMEM, Gibco 11965-092) supplemented with 10% Fetal Bovine Serum, heat inactivated (FBS HI, Gibco 10082-147), 1× non-essential amino acids (NEAA, Gibco 11140-050), and 1 mM sodium pyruvate (Gibco 11360-070). Cultures were maintained in a humidified incubator at 37° C. under 5% CO2/95% air.
For compound testing in 0% FBS, MDA-MB-453 cells were seeded at a density of 1.5×10^4 cells per well in white 384-well plates in 20 μl of Minimum Essential Media (MEM) assay media with 1×NEAA, 1 mM sodium pyruvate, and 1 μg/mL human insulin (Sigma I9278). Compounds dissolved in 10 mM stock solutions in DMSO were serially diluted 1:3 in DMSO to generate a 10-point dilution series and plated using an acoustic liquid handler system (Echo 550 Series Liquid Handler, Labcyte). A 5× intermediate compound dilution plate in MEM with 1×NEAA and 1 mM sodium pyruvate (150 μM starting compound concentration in 1.5% DMSO) was then prepared. Five μl of the intermediate serially diluted compounds were added to the cell plate to final concentrations ranging from […] in 0.3% DMSO. 0.3% DMSO alone was used to establish the maximum (MAX) signal and GDC-0032 at a final concentration of 1 μM was used as a reference compound for the minimum (MIN) signal. After 3 hours treatment, the medium was removed, and the cells lysed in 10 μL of 1× SureFire Lysis buffer with shaking for 10 minutes at room temperature. The Acceptor Mix (Reaction Buffer 1+Reaction Buffer 2+Activation Buffer+SureFire Ultra Acceptor Beads) was prepared by diluting Activation buffer 25-fold in combined Reaction Buffer 1 and Reaction Buffer 2. The Acceptor beads were diluted 50-fold in the combined Reaction Buffers. Five μL of Acceptor Mix was added to each well, the plate was sealed and covered with foil and incubated for 1 hour at room temperature. The Donor Mix (dilution buffer+SureFire Ultra Donor Beads) was prepared by diluting Donor Beads 50-fold in dilution buffer. Five μL of the Donor Mix was added to each well and the plate sealed and covered with foil and incubated for 1 hour at room temperature in the dark. The plates were read on a Neo2 plate reader instrument from Biotek using standard AlphaLisa settings. Compounds were tested in duplicate and the average % inhibition at each compound concentration was used to generate a single dose response curve. The data were processed using the Genedata-Screener tool. Relative IC50 values were determined using luminescence units by calculating percent inhibition with respect to the in-plate “MIN” (GDC-0032 reference control) and “MAX” (DMSO) controls. The data was analyzed using a 4-parameter nonlinear logistic equation (four-parameter logistic concentration-response curve): Y=bottom+[(top−bottom)/1+(X/IC50)slope] where Y=% inhibition, X=concentration of inhibitor, bottom=minimum value of y attained by curve-fit, top=maximum value of y attained by curve-fit and slope=steepness of curve at the IC50. % Inhibition=[(signal at X−median Min)/(median Max−median Min)]×100 IC50: concentration of compound that reduces a given response (ligand binding, enzyme response) by 50%. Relative IC50: concentration giving half the compound's maximum response.
For IC50 values shown in Table B, “A” means IC50<50 nM; “B” means IC50 ranging between 50 nM and 100 nM; “C” means IC50 ranging between 100 nM and 500 nM; “D” means IC50>500 nM.

Compound | IC50 [nM]
Cc1cc([C@@H](C)Nc2ccc(C)nc2C(=O)O)c2oc(-c3ccccc3)c(C(F)(F)F)c(=O)c2c1 [Example 116, 6-Methyl-3-[[(1R)-1-[6-methyl-4-oxo-2-phenyl-3-(trifluoromethyl)-chromen-8-yl]ethyl]amino]pyridine-2-carboxylic acid] | < 50
Cc1cc([C@@H](C)Nc2cccc(F)c2C(=O)O)c2oc(-c3cccc(F)c3)c(C)c(=O)c2c1 [Example 143, 2-Fluoro-6-[[(1R)-1-[2-(3-fluorophenyl)-3,6-dimethyl-4-oxo-chromen-8-yl]ethyl]amino]benzoic acid 2,2,2-trifluoroacetic acid] | < 50
Cc1cc([C@@H](C)Nc2ccccc2C(=O)O)c2oc(-c3cccc(C#N)c3F)c(C)c(=O)c2c1 [Example 170, 2-[[(1R)-1-[2-(3-Cyano-2-fluoro-phenyl)-3,6-dimethyl-4-oxo-chromen-8-yl]ethyl]amino]benzoic acid] | < 50
Cc1cc([C@@H](C)Nc2ccccc2C(=O)O)c2oc(-c3ccc(-c4ccc(C#N)cc4)cc3)c(C)c(=O)c2c1 [Example 172, 2-[[(1R)-1-[2-[4-(4-Cyanophenyl)phenyl]-3,6-dimethyl-4-oxo-chromen-8-yl]ethyl]amino]benzoic acid] | 50 to 100
Cc1cc([C@@H](C)Nc2ccccc2C(=O)O)c2oc(-c3ccc(-c4cccc(C#N)c4)cc3)c(C)c(=O)c2c1 [Example 173, 2-[[(1R)-1-[2-[4-(3-Cyanophenyl)phenyl]-3,6-dimethyl-4-oxo-chromen-8-yl]ethyl]amino]benzoic acid] | 50 to 100
Cc1cc([C@@H](C)Nc2ccccc2C(=O)O)c2oc(-c3cccc(-c4ccccc4C#N)c3)c(C)c(=O)c2c1 [Example 174, 2-[[(1R)-1-[2-[3-(2-Cyanophenyl)phenyl]-3,6-dimethyl-4-oxo-chromen-8-yl]ethyl]amino]benzoic acid] | < 50
Cc1cc([C@@H](C)Nc2ccccc2C(=O)O)c2oc(-c3cccc(-c4ccc(C#N)cc4)c3)c(C)c(=O)c2c1 [Example 175, 2-[[(1R)-1-[2-[3-(4-Cyanophenyl)phenyl]-3,6-dimethyl-4-oxo-chromen-8-yl]ethyl]amino]benzoic acid] | 50 to 100
Cc1cc([C@@H](C)Nc2ccccc2C(=O)O)c2oc(-c3cccc(-c4cccc(C#N)c4)c3)c(C)c(=O)c2c1 [Example 176, 2-[[(1R)-1-[2-[3-(3-Cyanophenyl)phenyl]-3,6-dimethyl-4-oxo-chromen-8-yl]ethyl]amino]benzoic acid] | 50 to 100
Cc1cc([C@@H](C)Nc2ccccc2C(=O)O)c2oc(-c3ccc(-c4ccccc4C#N)cc3)c(C)c(=O)c2c1 [Example 177, 2-[[(1R)-1-[2-[4-(2-Cyanophenyl)phenyl]-3,6-dimethyl-4-oxo-chromen-8-yl]ethyl]amino]benzoic acid] | < 50
Cc1cc([C@@H](C)Nc2ccccc2C(=O)O)c2oc(-c3cccc(-n4cc(C#N)cn4)c3)c(C)c(=O)c2c1 [Example 178, 2-[[(1R)-1-[2-[3-(4-Cyanopyrazol-1-yl)phenyl]-3,6-dimethyl-4-oxo-chromen-8-yl]ethyl]amino]benzoic acid 2,2,2-trifluoroacetic acid] | < 50
